≈ marks a conversion by molar mass, not a printed value.
Experiments:
[1] = tested on: SDH enzyme of Escherichia coli (EcSDH); parameters: method as in earlier work; details: cited from earlier work
[2] = biological target: T1, EcSDH (shikimate dehydrogenase enzyme of Escherichia coli) (Escherichia coli, UniProt P15770); test: EcSDH enzymatic activity assay (NADPH oxidation at 340 nm, DHS as substrate); format: biochemical; details: for KI (dissociation constant for the enzyme-substrate-inhibitor complex): 25 °C, NADPH 0.21 mM, DHS 0.0625-1.5 mM, mixed type inhibition, triplicate
T1 construct: 6-Histidine tag (pCold-I) (N, cleaved yes); made in house; host or cells: E. coli ΔaroE::KanR (JW3242, Keio collection) carrying pCold-EcSDH
Protocol: The enzymatic activity of EcSDH was assayed at 25 °C by monitoring the oxidation of NADPH at 340 nm (ϵ = 6.18 × 10^3 M^−1 cm^−1). All assays were performed in a Genesys 10 S UV-vis spectrophotometer (Thermo Fisher Scientific Inc., Waltham, MA). The reaction mix contained (final volume 200 µl) KH2PO4 100 mM pH 7.5, NADPH 0.21 mM, DHS, synthesised molecules and diluted enzyme. Stored enzyme stocks (200 U/ml) were diluted 1:100 in KH2PO4 100 mM pH 7.5 before use. The reaction was initiated by addition of 2 µl of the diluted EcSDH enzyme and absorbance was measured within 2 min. During assays NADPH concentration was fixed at 0.21 mM, DHS concentrations were 0.0625, 0.125, 0.25, 0.5, 1 and 1.5 mM and concentrations of amides were 0, 0.25, 0.5, 1 and 1.5 mM. Experiments were performed in triplicate.
To determine the inhibition mode Lineweaver–Burk plots of the inverse of velocities (1/v) versus the inverse of substrate concentration 1/[S] were obtained. The Michaelis–Menten constant (Km), maximum velocity (Vmax) and inhibition constants (Ki and KI) were analysed using Equation (1)[22]^,[23]. Where I represent the inhibitor concentration, KI is defined as the dissociation constant for the enzyme-substrate-inhibitor complex and Ki as the dissociation constant for the enzyme-inhibitor complex. Kinetic data were processed by nonlinear regression using the Origin software (OriginLab, Northampton, MA).
Dissociation constants were related to IC50 values following the Cheng–Prusoff Equation (2)[24]. Where IC50 represents the concentration of inhibitor producing 50% of enzyme inhibition. The determined Km of DHS was 92.29 ± 2.70 µM, and 125 µM of DHS was delimited as the substrate concentration [S]: (1) v=Vmax [S]/S1+I/KI+ Km(1+ [I]/Ki) (2) IC50= Km+[S]/Km/Ki+ ([S]/KI).
The inhibitory effect of SA amide-derivatives was tested against EcSDH at […]. To characterise the enzymatic activity for its more biological meaningful reaction, the enzyme was assayed in the direction of SA formation, for this DHS was used as the substrate. The activity of EcSDH enzyme was determined in the presence of different concentrations of synthesised compounds, and Lineweaver–Burk plots of (1/v) versus 1/[S] were obtained. […] To characterise the kinetic parameters, data were analysed using Equation (1). For every synthesised amide Ki < KI indicating a stronger affinity for the substrate free instead of bounded substrate enzyme. […] Despite the similar magnitude of inhibition, it appears that inhibition activity smoothly increases with increase in the alkyl chain length. […] The similar inhibitory effect of diamides may arise with strong participation of the extra SA substituent.

[3] = tested on: E. coli strain JM101; test: Minimal inhibitory concentration (MIC), broth microdilution; format: cell-based; details: Escherichia coli, LB media, 37 °C, 16 h, tested 4-512 mg/l, duplicate
Protocol: The broth microdilution method[25] was used to determine the MIC of synthesised molecules against E. coli strain JM101. Cells were grown to exponential phase in LB media (OD600nm ∼0.5) and the cultures were diluted to a concentration of 2 × 10^5 colony-forming units/ml. The 96-well plates containing 75 µl of LB media and synthesised compounds were inoculated with 75 µl of the bacterial suspension and shaken at 37 °C for 16 h. Compounds were tested in a range of doubling concentrations between 4 and 512 mg/l with a final dimethylsulphoxide concentration of 0.8% (v/v). LB media supplemented with kanamycin was used as a positive control, and the OD600nm of the DMSO-treated control was taken as representative of 100% bacterial growth. […] Experiments were performed in duplicate.

[4] = biological target: Pisum sativum SDH enzyme; parameters: method as in PMID 13686343; details: SA; competitive inhibition; cited from earlier work
[5] = biological target: SDH of H. pylori; parameters: method as in PMID 16972983; details: SA; non-competitive inhibitor; cited from earlier work
[6] = tested on: H. pylori; parameters: method as in PMID 16972983; details: in vitro antibacterial activity; cited from earlier work
[7] = tested on: SDH of Pseudomonas putida; parameters: method as in PMID 24632659; details: cited from earlier work

T1 sequence (P15770 whole entry): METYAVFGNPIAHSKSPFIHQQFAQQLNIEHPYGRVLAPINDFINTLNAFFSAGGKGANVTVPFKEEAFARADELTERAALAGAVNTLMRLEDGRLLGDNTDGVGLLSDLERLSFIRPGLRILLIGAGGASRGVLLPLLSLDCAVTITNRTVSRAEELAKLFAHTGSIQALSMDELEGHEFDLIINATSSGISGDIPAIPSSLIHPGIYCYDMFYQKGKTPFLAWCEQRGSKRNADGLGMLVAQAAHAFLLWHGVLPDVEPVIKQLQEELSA

Compound	IC50 [2]	Ki [2]	KI (dissociation constant for the enzyme-substrate-inhibitor complex) [2]	MIC [3]	further results
O=C(O)C1=C[C@@H](O)[C@@H](O)[C@H](O)C1 [SA, (-)-shikimic acid]					Ki [1]: 160 µM
O=C(NCCCO)C1=C[C@@H](O)[C@@H](O)[C@H](O)C1 [Mon3, (3R,4S,5R)-3,4,5-trihydroxy-N-(3-hydroxypropyl)cyclohex-1-ene-1-carboxamide]	949 ± 33 µM	733 ± 67 µM	1214 ± 58 µM	512 µg/mL (≈ 2210 µM)	
O=C(O)c1cc(O)c(O)c(O)c1 [gallic acid]					Ki [4]: 380 µM
O=C(NCCCCNC(=O)C1=C[C@@H](O)[C@@H](O)[C@H](O)C1)C1=C[C@@H](O)[C@@H](O)[C@H](O)C1 [Dim4, (3R,3'R,4S,4'S,5R,5'R)-N,N'-(butane-1,4-diyl)bis(3,4,5-trihydroxycyclohex-1-ene-1-carboxamide)]	652 ± 65 µM	458 ± 81 µM	945 ± 13 µM	512 µg/mL (≈ 1280 µM)	
O=C(NCCCCCO)C1=C[C@@H](O)[C@@H](O)[C@H](O)C1 [Mon5, (3R,4S,5R)-3,4,5-trihydroxy-N-(5-hydroxypentyl)cyclohex-1-ene-1-carboxamide]	953 ± 10 µM	642 ± 34 µM	1483 ± 91 µM	512 µg/mL (≈ 1970 µM)	
COc1cc(/C=C/C(=O)CC(=O)/C=C/c2ccc(O)c(OC)c2)ccc1O [curcumin]					Ki [5]: 6 µM; MIC [6]: 16 µg/mL (≈ 43.4 µM)
COc1cc(C=O)ccc1O [vanillin]					Ki [4]: 93 µM
O=C(NCCNC(=O)C1=C[C@@H](O)[C@@H](O)[C@H](O)C1)C1=C[C@@H](O)[C@@H](O)[C@H](O)C1 [Dim2, (3R,3'R,4S,4'S,5R,5'R)-N,N'-(ethane-1,2-diyl)bis(3,4,5-trihydroxycyclohex-1-ene-1-carboxamide)]	588 ± 55 µM	416 ± 69 µM	831 ± 12 µM	512 µg/mL (≈ 1370 µM)	
O=C(O[C@@H]1Cc2c(O)cc(O)cc2O[C@@H]1c1cc(O)c(O)c(O)c1)c1cc(O)c(O)c(O)c1 [epigallocatechin gallate]					IC50 [7]: 3 µM
O=C(NCCCCCCO)C1=C[C@@H](O)[C@@H](O)[C@H](O)C1 [Mon6, (3R,4S,5R)-3,4,5-trihydroxy-N-(6-hydroxyhexyl)cyclohex-1-ene-1-carboxamide]	829 ± 49 µM	587 ± 49 µM	1188 ± 26 µM	512 µg/mL (≈ 1870 µM)	
O=C(NCCCNC(=O)C1=C[C@@H](O)[C@@H](O)[C@H](O)C1)C1=C[C@@H](O)[C@@H](O)[C@H](O)C1 [Dim3, (3R,3'R,4S,4'S,5R,5'R)-N,N'-(propane-1,3-diyl)bis(3,4,5-trihydroxycyclohex-1-ene-1-carboxamide)]	589 ± 56 µM	400 ± 50 µM	896 ± 72 µM	512 µg/mL (≈ 1330 µM)	
O=C(O)c1ccc(O)c(O)c1 [protocatechuic acid]					Ki [4]: 750 µM
O=C(NCCCCO)C1=C[C@@H](O)[C@@H](O)[C@H](O)C1 [Mon4, (3R,4S,5R)-3,4,5-trihydroxy-N-(4-hydroxybutyl)cyclohex-1-ene-1-carboxamide]	882 ± 54 µM	717 ± 71 µM	1145 ± 130 µM	512 µg/mL (≈ 2090 µM)	
